Each block holds one compound with its values, some of them ahead of it.
Tested on: 782815-120-R-J1-PDC complex spheroid viability
Test: Anticancer human tumor 782815-120-R-J1-PDC patient-derived colon adenocarcinoma cell line growth inhibition [RAS]
Details: for IC50: curve of first compound; for viability, T/C: stronger effect = lower value
Procedure, shortened: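 Multi-cell-type spheroids: tumor cells plus HUVEC endothelial cells and mesenchymal stem cells. RAS-pathway inhibitors were combined with targeted agents, each dosed in half-log steps down from clinical Cmax, or from 10 microM when Cmax was unknown.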

[1] = second compound 0.00316 µM, first compound 0.0316 µM
[2] = second compound 0.00316 µM, first compound 0.1 µM
[3] = second compound 0.00316 µM, first compound 0.316 µM
[4] = second compound 0.00316 µM, first compound 1 µM
[5] = second compound 0.00316 µM, first compound 3.16 µM
[6] = second compound 0.00316 µM, first compound 10 µM
[7] = second compound 0.01 µM, first compound 0.0316 µM
[8] = second compound 0.01 µM, first compound 0.1 µM
[9] = second compound 0.01 µM, first compound 0.316 µM
[10] = second compound 0.01 µM, first compound 1 µM
[11] = second compound 0.01 µM, first compound 3.16 µM
[12] = second compound 0.01 µM, first compound 10 µM
[13] = second compound 0.0316 µM, first compound 0.0316 µM
[14] = second compound 0.0316 µM, first compound 0.1 µM
[15] = second compound 0.0316 µM, first compound 0.316 µM
[16] = second compound 0.0316 µM, first compound 1 µM
[17] = second compound 0.0316 µM, first compound 3.16 µM
[18] = second compound 0.0316 µM, first compound 10 µM
[19] = second compound 0.1 µM, first compound 0.0316 µM
[20] = second compound 0.1 µM, first compound 0.1 µM
[21] = second compound 0.1 µM, first compound 0.316 µM
[22] = second compound 0.1 µM, first compound 1 µM
[23] = second compound 0.1 µM, first compound 3.16 µM
[24] = second compound 0.1 µM, first compound 10 µM
[25] = second compound 0.316 µM, first compound 0.0316 µM
[26] = second compound 0.316 µM, first compound 0.1 µM
[27] = second compound 0.316 µM, first compound 0.316 µM
[28] = second compound 0.316 µM, first compound 1 µM
[29] = second compound 0.316 µM, first compound 3.16 µM
[30] = second compound 0.316 µM, first compound 10 µM
[31] = second compound 1 µM, first compound 0.0316 µM
[32] = second compound 1 µM, first compound 0.1 µM
[33] = second compound 1 µM, first compound 0.316 µM
[34] = second compound 1 µM, first compound 1 µM
[35] = second compound 1 µM, first compound 3.16 µM
[36] = second compound 1 µM, first compound 10 µM
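Further: spheroids exposed to compounds for 7 days before reading.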
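Wherever viability, T/C is given: 100% = DMSO vehicle control viability.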

IC50 (second compound 0.00316 µM): > 10 µM
IC50 (second compound 0.01 µM): > 10 µM
IC50 (second compound 0.0316 µM): > 10 µM
IC50 (second compound 0.1 µM): > 10 µM
IC50 (second compound 0.316 µM): > 10 µM
IC50 (second compound 1 µM): > 10 µM
Structure (SMILES): CC(C)NCC(C(=O)N1CCN(c2ncnc3c2C(C)CC3O)CC1)c1ccc(Cl)cc1 (stereo not drawn) + C=CC(=O)N1CCN(c2nc(OCC3CCCN3C)nc3c(F)c(-c4nc(N)cc(C)c4C(F)(F)F)c(Cl)cc23)C(C)C1
viability, T/C [1]: 98.4%
viability, T/C [2]: 97%
viability, T/C [3]: 102%
viability, T/C [4]: 92%
viability, T/C [5]: 99%
viability, T/C [6]: 98.7%
viability, T/C [7]: 101%
viability, T/C [8]: 93.3%
viability, T/C [9]: 91.1%
viability, T/C [10]: 93.2%
viability, T/C [11]: 101%
viability, T/C [12]: 96.9%
viability, T/C [13]: 96.2%
viability, T/C [14]: 96.8%
viability, T/C [15]: 94.3%
viability, T/C [16]: 87.9%
viability, T/C [17]: 96.3%
viability, T/C [18]: 101%
viability, T/C [19]: 104%
viability, T/C [20]: 95.2%
viability, T/C [21]: 96.4%
viability, T/C [22]: 94.5%
viability, T/C [23]: 95.9%
viability, T/C [24]: 104%
viability, T/C [25]: 106%
viability, T/C [26]: 93.4%
viability, T/C [27]: 93%
viability, T/C [28]: 88.5%
viability, T/C [29]: 96.7%
viability, T/C [30]: 92.6%
viability, T/C [31]: 105%
viability, T/C [32]: 100%
viability, T/C [33]: 92.5%
viability, T/C [34]: 98.9%
viability, T/C [35]: 103%
viability, T/C [36]: 99.1%

IC50 (second compound 0.0316 µM): 6.05 µM
IC50 (second compound 0.1 µM): 4.76 µM
IC50 (second compound 0.316 µM): 5.35 µM
IC50 (second compound 1 µM): 5.29 µM
IC50 (second compound 3.16 µM): 5.79 µM
IC50 (second compound 10 µM): 4.9 µM
Structure (SMILES): CC1(O)CCCC1n1c(=O)c(C(F)F)cc2cnc(NC3CCN(S(C)(=O)=O)CC3)nc21 (stereo not drawn) + C#Cc1c(F)ccc2cc(O)cc(-c3ncc4c(N5CC6CCC(C5)N6)nc(OCC56CCCN5CC(F)C6)nc4c3F)c12
viability, T/C [13]: 73.7%
viability, T/C [14]: 74.5%
viability, T/C [15]: 65.7%
viability, T/C [16]: 76%
viability, T/C [17]: 68.8%
viability, T/C [18]: 35.1%
viability, T/C [19]: 83.1%
viability, T/C [20]: 75.2%
viability, T/C [21]: 68.8%
viability, T/C [22]: 62.8%
viability, T/C [23]: 66.4%
viability, T/C [24]: 32.6%
viability, T/C [25]: 78.6%
viability, T/C [26]: 79.7%
viability, T/C [27]: 69.2%
viability, T/C [28]: 69.2%
viability, T/C [29]: 65.6%
viability, T/C [30]: 34.4%
viability, T/C [31]: 88.5%
viability, T/C [32]: 77.7%
viability, T/C [33]: 75.4%
viability, T/C [34]: 69.5%
viability, T/C [35]: 70.7%
viability, T/C [36]: 28.6%
viability, T/C (second compound 3.16 µM, first compound 0.0316 µM): 77.5%
viability, T/C (second compound 3.16 µM, first compound 0.1 µM): 67.4%
viability, T/C (second compound 3.16 µM, first compound 0.316 µM): 68.7%
viability, T/C (second compound 3.16 µM, first compound 1 µM): 71%
viability, T/C (second compound 3.16 µM, first compound 3.16 µM): 79.1%
viability, T/C (second compound 3.16 µM, first compound 10 µM): 29.5%
viability, T/C (second compound 10 µM, first compound 0.0316 µM): 70.7%
viability, T/C (second compound 10 µM, first compound 0.1 µM): 65.8%
viability, T/C (second compound 10 µM, first compound 0.316 µM): 65.5%
viability, T/C (second compound 10 µM, first compound 1 µM): 67.3%
viability, T/C (second compound 10 µM, first compound 3.16 µM): 74.3%
viability, T/C (second compound 10 µM, first compound 10 µM): 19.5%

IC50 (second compound 0.00316 µM): > 0.3 µM
IC50 (second compound 0.01 µM): > 0.3 µM
IC50 (second compound 0.0316 µM): > 0.3 µM
IC50 (second compound 0.1 µM): > 0.3 µM
IC50 (second compound 0.316 µM): > 0.3 µM
IC50 (second compound 1 µM): 0.27 µM
Structure (SMILES): CC1(C)CCC(Nc2ncc(C(F)(F)F)c(-c3c[nH]c4c(P(C)(C)=O)c(C#N)ccc34)n2)CN1 (stereo not drawn) + C=CC(=O)N1CCN(c2nc(OCC3CCCN3C)nc3c(F)c(-c4nc(N)cc(C)c4C(F)(F)F)c(Cl)cc23)C(C)C1
viability, T/C (second compound 0.00316 µM, first compound 0.000949 µM): 106%
viability, T/C (second compound 0.00316 µM, first compound 0.003 µM): 113%
viability, T/C (second compound 0.00316 µM, first compound 0.00949 µM): 88.4%
viability, T/C (second compound 0.00316 µM, first compound 0.03 µM): 63.7%
viability, T/C (second compound 0.00316 µM, first compound 0.0949 µM): 68.8%
viability, T/C (second compound 0.00316 µM, first compound 0.3 µM): 58.3%
viability, T/C (second compound 0.01 µM, first compound 0.000949 µM): 97.7%
viability, T/C (second compound 0.01 µM, first compound 0.003 µM): 101%
viability, T/C (second compound 0.01 µM, first compound 0.00949 µM): 88.7%
viability, T/C (second compound 0.01 µM, first compound 0.03 µM): 72.9%
viability, T/C (second compound 0.01 µM, first compound 0.0949 µM): 49.5%
viability, T/C (second compound 0.01 µM, first compound 0.3 µM): 59.6%
viability, T/C (second compound 0.0316 µM, first compound 0.000949 µM): 107%
viability, T/C (second compound 0.0316 µM, first compound 0.003 µM): 103%
viability, T/C (second compound 0.0316 µM, first compound 0.00949 µM): 90.8%
viability, T/C (second compound 0.0316 µM, first compound 0.03 µM): 77.2%
viability, T/C (second compound 0.0316 µM, first compound 0.0949 µM): 57.8%
viability, T/C (second compound 0.0316 µM, first compound 0.3 µM): 52.3%
viability, T/C (second compound 0.1 µM, first compound 0.000949 µM): 107%
viability, T/C (second compound 0.1 µM, first compound 0.003 µM): 104%
viability, T/C (second compound 0.1 µM, first compound 0.00949 µM): 88.7%
viability, T/C (second compound 0.1 µM, first compound 0.03 µM): 68.2%
viability, T/C (second compound 0.1 µM, first compound 0.0949 µM): 55.5%
viability, T/C (second compound 0.1 µM, first compound 0.3 µM): 56.8%
viability, T/C (second compound 0.316 µM, first compound 0.000949 µM): 103%
viability, T/C (second compound 0.316 µM, first compound 0.003 µM): 97.2%
viability, T/C (second compound 0.316 µM, first compound 0.00949 µM): 90.9%
viability, T/C (second compound 0.316 µM, first compound 0.03 µM): 67.2%
viability, T/C (second compound 0.316 µM, first compound 0.0949 µM): 77.3%
viability, T/C (second compound 0.316 µM, first compound 0.3 µM): 55.3%
viability, T/C (second compound 1 µM, first compound 0.000949 µM): 120%
viability, T/C (second compound 1 µM, first compound 0.003 µM): 97.1%
viability, T/C (second compound 1 µM, first compound 0.00949 µM): 85.8%
viability, T/C (second compound 1 µM, first compound 0.03 µM): 63.3%
viability, T/C (second compound 1 µM, first compound 0.0949 µM): 65.2%
viability, T/C (second compound 1 µM, first compound 0.3 µM): 53.3%

IC50 (second compound 0.00316 µM): > 10 µM
IC50 (second compound 0.01 µM): > 10 µM
IC50 (second compound 0.0316 µM): > 10 µM
IC50 (second compound 0.1 µM): > 10 µM
IC50 (second compound 0.316 µM): > 10 µM
IC50 (second compound 1 µM): > 10 µM
Structure (SMILES): CC(Nc1ccc2c(c1)OCCn1cc(N3C(=O)OCC3C(F)F)nc1-2)C(N)=O (stereo not drawn) + C=CC(=O)N1CCN(c2nc(OCC3CCCN3C)nc3c(F)c(-c4nc(N)cc(C)c4C(F)(F)F)c(Cl)cc23)C(C)C1
viability, T/C [1]: 92.9%
viability, T/C [2]: 87.6%
viability, T/C [3]: 88.4%
viability, T/C [4]: 79.1%
viability, T/C [5]: 99.6%
viability, T/C [6]: 103%
viability, T/C [7]: 93.5%
viability, T/C [8]: 98.6%
viability, T/C [9]: 95.8%
viability, T/C [10]: 83.6%
viability, T/C [11]: 103%
viability, T/C [12]: 98.8%
viability, T/C [13]: 93.2%
viability, T/C [14]: 93.6%
viability, T/C [15]: 82.3%
viability, T/C [16]: 80.6%
viability, T/C [17]: 87.8%
viability, T/C [18]: 93.3%
viability, T/C [19]: 88.3%
viability, T/C [20]: 91.1%
viability, T/C [21]: 94.1%
viability, T/C [22]: 86.1%
viability, T/C [23]: 102%
viability, T/C [24]: 93.2%
viability, T/C [25]: 93.6%
viability, T/C [26]: 86.4%
viability, T/C [27]: 86.4%
viability, T/C [28]: 89.2%
viability, T/C [29]: 85.1%
viability, T/C [30]: 101%
viability, T/C [31]: 95.2%
viability, T/C [32]: 79.5%
viability, T/C [33]: 87.2%
viability, T/C [34]: 85.2%
viability, T/C [35]: 97.8%
viability, T/C [36]: 92.8%

Source: PubChem BioAssay AID2060887 (Molecular Pharmacology Branch, DTP, NCI, 2025)
